According to BindingDB's records for patent USRE47493 (Boehringer Ingelheim International, 2019):

Biological target: T1, Neutrophil elastase (Homo sapiens, UniProt P08246)
T1 sequence (P08246 whole entry): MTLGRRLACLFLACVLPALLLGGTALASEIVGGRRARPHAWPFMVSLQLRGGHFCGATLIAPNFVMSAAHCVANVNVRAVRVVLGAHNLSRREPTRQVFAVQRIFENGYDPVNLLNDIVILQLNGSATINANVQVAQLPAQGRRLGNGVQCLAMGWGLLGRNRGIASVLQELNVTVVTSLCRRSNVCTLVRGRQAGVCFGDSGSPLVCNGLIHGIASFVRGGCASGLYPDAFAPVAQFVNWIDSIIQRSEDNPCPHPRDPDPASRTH
Experiment: Enzyme Inhibition Assay
Method: All other materials were of the highest grade commercially available.The following buffers were used: Compound buffer: 100 mM Tris, 500 mM NaCl, adjusted to pH 7.5; Assay buffer: 100 mM Tris, 500 mM NaCl, adjusted to pH 7.5, containing 0.01% BSA.Assay conditions: Test compounds were prediluted in DMSO and subsequently in compound buffer (5% DMSO final). […] After inactivation of the enzyme, fluorescence intensities were measured at 380 nm excitation and 460 nm emission wavelengths.

Row | IC50 [nM] | Structure (SMILES)
1 | < 1 | N#Cc1ccc(C2C3=C(CCCC3=O)N(c3cccc(C(F)(F)F)c3)C(=O)N2C(=O)NC2CCC[C@@H]2O)cc1 (some centres not stated) [USRE47493, Example 70.12]
2 | 1.1 | N#Cc1ccc(C2C3=C(CCCC3=O)N(c3cccc(C(F)(F)F)c3)C(=O)N2C(=O)NC2CCCC[C@@H]2O)cc1 (some centres not stated) [USRE47493, Example 70.17]
